The target in one experiment is T1, human skin chymase (Homo sapiens, UniProt P23946).
T1 construct: human skin chymase (Cortex Biochem); purchased Cortex Biochem; host or cells: human skin (from the enzyme's name)
T1 sequence (P23946 22-247): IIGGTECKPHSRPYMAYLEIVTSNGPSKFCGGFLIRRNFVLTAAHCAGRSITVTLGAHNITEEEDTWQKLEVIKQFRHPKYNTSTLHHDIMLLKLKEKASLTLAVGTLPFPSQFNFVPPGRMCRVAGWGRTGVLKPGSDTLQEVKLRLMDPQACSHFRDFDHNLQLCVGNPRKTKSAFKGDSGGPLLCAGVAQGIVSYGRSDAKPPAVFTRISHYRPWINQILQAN
In words: Enzyme-catalyzed hydrolysis assay, chymase (chromogenic substrate Suc-Ala-Ala-Pro-Phe-pNa). Format: biochemical. The following applies: 10 nM enzyme, 0.7 mM substrate, pH 8.0, 37° C., 30 minutes. As to the method: (§1) Enzyme-catalyzed hydrolysis rates were measured spectrophotometrically using human neutrophil cathepsin G (Athens Research and Technology) or human skin chymase (Cortex Biochem), a chromogenic substrate (Suc-Ala-Ala-Pro-Phe-pNa) (Bachem) in aqueous buffer (100 mM Hepes, 500 mM NaCl, pH 7.4 for catG; 450 mM Tris, 1800 mM NaCl, pH 8.0 for chymase), and a microplate reader (Molecular Devices). […] Percent inhibition was calculated by comparing the initial reaction slopes of the samples without inhibitor to those with inhibitor. IC50 values were determined using a four parameter fit logistics model. The term “NT” indicates a compound that was not tested.

Experiment [1] has as its target T2, human neutrophil cathepsin G (Homo sapiens, UniProt P08311).
T2 construct: human neutrophil cathepsin G (Athens Research and Technology); purchased Athens Research and Technology; host or cells: human neutrophils (from the enzyme's name)
T2 sequence (P08311 21-243 limits assumed): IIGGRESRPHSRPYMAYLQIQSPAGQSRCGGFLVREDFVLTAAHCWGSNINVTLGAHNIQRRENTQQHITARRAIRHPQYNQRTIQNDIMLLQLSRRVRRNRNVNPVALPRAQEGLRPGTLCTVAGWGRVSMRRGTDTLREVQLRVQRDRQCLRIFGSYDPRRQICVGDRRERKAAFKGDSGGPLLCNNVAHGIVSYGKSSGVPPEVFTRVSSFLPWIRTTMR
In words: Enzyme-catalyzed hydrolysis assay, cathepsin G (chromogenic substrate Suc-Ala-Ala-Pro-Phe-pNa). The format is biochemical. Particulars: 70 nM enzyme, 5 mM substrate, pH 7.4, 37° C., 30 minutes; read-out: IC50 (μM) CatG. On the procedure: as §1

For orientation: IC50 means the concentration needed to halve the response being measured. For the substance “[2-[3-[[[1-[(6-hydroxy-2-naphthalenyl)carbonyl]-4-piperidinyl]methylamino]carbonyl]-2-naphthalenyl]-1-(1-naphthalenyl)-2-oxoethyl]-phosphonic acid [Compound 24]”, the IC50 worked out at 0.0035 ± 0.0013 µM against human skin chymase and 0.078 ± 0.015 µM in experiment [1].
As for “[2-[3-[[[1-[(6-methoxy-2-naphthalenyl)carbonyl]-3-pyrrolidinyl]methylamino]carbonyl]-2-naphthalenyl]-1-(1-naphthalenyl)-2-oxoethyl]-phosphonic acid [Compound 3]”, the 50% inhibitory concentration (IC50) stood at 0.072 ± 0.008 µM at human skin chymase and 0.068 ± 0.019 µM in experiment [1].
On the same counts, the results for “[2-[3-[[[4-(1,1-dimethylethyl)cyclohexyl]methylamino]carbonyl]-2-naphthalenyl]-1-(1-naphthalenyl)-2-oxoethyl]-phosphonic acid [Compound 22]” are 0.009 ± 0.023 µM and 0.14 ± 0.04 µM.

For the origin of these results see US8703957B2 (Janssen Pharmaceutica NV, priority 2001, dated 2014).
